Assay results reported in patent US9603364B2 (Dow AgroSciences LLC, priority 2013, dated 2017).

Tests used:
Assay in all cases: General post-emergent herbicidal activity, foliar application
Type in all cases: in vivo
[1] = system: Amaranthus retroflexus L. (pigweed, redroot)
Method in brief: (§1)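 Visual injury ratings on a scale of 0 (none) to 100% (complete kill), taken 14 days after foliar post-emergence treatment of greenhouse plants and compared with untreated plants, were fitted by probit analysis to give GR20, GR50 and GR80 doses; some GR80 values are extrapolated from the slope. Sprays contained crop oil concentrate and surfactant, with rates from the highest down to 1/16×.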

[2] = system: Chenopodium album L. (lambsquarters, common)
Method in brief: as §1

[3] = system: Echinochloa crus-galli (L.) Beauv. (barnyardgrass)
Method in brief: as §1

[4] = system: Euphorbia heterophylla L. (poinsettia, wild)
Method in brief: as §1

[5] = system: Helianthus annuus L. (sunflower, common)
Method in brief: as §1

[6] = system: Viola tricolor L. (pansy)
Method in brief: as §1

[7] = system: Oryza sativa L. (rice); conditions: Oryza sativa, 336 h, scored after 14 days, read-out: % Visual Growth Reduction ORYSA
Method in brief: (§2)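 Compounds in acetone/DMSO (97:3) diluted into aqueous spray with isopropanol, Atplus 411F crop oil and Triton X-155; top rate plus 1/2×–1/16× serial rates applied to foliage, solvent blank as control. Greenhouse, sub-irrigated; visual injury versus untreated plants scored 0–100% (100 = complete kill) after 14 days.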

[8] = system: Zea mays L. (corn); conditions: 336 h, scored after 14 days, read-out: % Visual Growth Reduction ZEAMX
Method in brief: as §2

[9] = calculated by probit analysis, dose for 80% visual injury, may be extrapolated

In the case of COC(=O)c1nc(C(C)(C)F)c(F)c(N)c1Cl [Compound F8, Methyl 4-amino-3-chloro-5-fluoro-6-(2-fluoropropan-2-yl)picolinate], the pest or weed control at 40 g/ha ([1]; Amaranthus retroflexus, 336 h, 40 g ai/ha, foliar post-emergent, scored after 14 days, read-out: % Visual Growth Reduction AMARE) is reported as 90%, the pest or weed control at 80 g/ha ([1]; Amaranthus retroflexus, 336 h, 80 g ai/ha, foliar post-emergent, scored after 14 days, read-out: % Visual Growth Reduction AMARE) is reported as 100% and the pest or weed control at 160 g/ha ([1]; Amaranthus retroflexus, 336 h, 160 g ai/ha, foliar post-emergent, scored after 14 days, read-out: % Visual Growth Reduction AMARE) is reported as 100%. For the same compound, the “GR80 Value AMARE” value [1, 9] was 25.1 g ai/ha, the pest or weed control at 40 g/ha ([2]; Chenopodium album, 336 h, 40 g ai/ha, foliar post-emergent, scored after 14 days, read-out: % Visual Growth Reduction CHEAL) was 90% and the pest or weed control at 80 g/ha ([2]; Chenopodium album, 336 h, 80 g ai/ha, foliar post-emergent, scored after 14 days, read-out: % Visual Growth Reduction CHEAL) was 90%. For the same compound, the pest or weed control at 160 g/ha ([2]; Chenopodium album, 336 h, 160 g ai/ha, foliar post-emergent, scored after 14 days, read-out: % Visual Growth Reduction CHEAL) was 90%, the “GR80 Value CHEAL” value [2, 9] was 36.9 g ai/ha and the pest or weed control at 40 g/ha ([3]; Echinochloa crus-galli, 336 h, 40 g ai/ha, foliar post-emergent, scored after 14 days, read-out: % Visual Growth Reduction ECHCG) was 0%. The pest or weed control at 80 g/ha ([3]; Echinochloa crus-galli, 336 h, 80 g ai/ha, foliar post-emergent, scored after 14 days, read-out: % Visual Growth Reduction ECHCG) was 0%, the pest or weed control at 160 g/ha ([3]; Echinochloa crus-galli, 336 h, 160 g ai/ha, foliar post-emergent, scored after 14 days, read-out: % Visual Growth Reduction ECHCG) was 50% and the “GR80 Value ECHCG” value [3, 9] was 213 g ai/ha. For the same compound, the pest or weed control at 40 g/ha ([4]; Euphorbia heterophylla, 336 h, 40 g ai/ha, foliar post-emergent, scored after 14 days, read-out: % Visual Growth Reduction EPHHL) was 90%, the pest or weed control at 80 g/ha ([4]; Euphorbia heterophylla, 336 h, 80 g ai/ha, foliar post-emergent, scored after 14 days, read-out: % Visual Growth Reduction EPHHL) was 100% and the pest or weed control at 160 g/ha ([4]; Euphorbia heterophylla, 336 h, 160 g ai/ha, foliar post-emergent, scored after 14 days, read-out: % Visual Growth Reduction EPHHL) was 100%. The “GR80 Value EPHHL” value [4, 9] was 17.9 g ai/ha, the pest or weed control at 40 g/ha ([5]; Helianthus annuus, 336 h, 40 g ai/ha, foliar post-emergent, scored after 14 days, read-out: % Visual Growth Reduction HELAN) was 90% and the pest or weed control at 80 g/ha ([5]; Helianthus annuus, 336 h, 80 g ai/ha, foliar post-emergent, scored after 14 days, read-out: % Visual Growth Reduction HELAN) was 90%. For the same compound, the pest or weed control at 160 g/ha ([5]; Helianthus annuus, 336 h, 160 g ai/ha, foliar post-emergent, scored after 14 days, read-out: % Visual Growth Reduction HELAN) was 90%, the “GR80 Value HELAN” value [5, 9] was 18.6 g ai/ha and the pest or weed control at 40 g/ha ([6]; Viola tricolor, 336 h, 40 g ai/ha, foliar post-emergent, scored after 14 days, read-out: % Visual Growth Reduction VIOTR) was 10%. The pest or weed control at 80 g/ha ([6]; Viola tricolor, 336 h, 80 g ai/ha, foliar post-emergent, scored after 14 days, read-out: % Visual Growth Reduction VIOTR) was 50%, the pest or weed control at 160 g/ha ([6]; Viola tricolor, 336 h, 160 g ai/ha, foliar post-emergent, scored after 14 days, read-out: % Visual Growth Reduction VIOTR) was 70% and the “GR80 Value VIOTR” value [6, 9] was 185 g ai/ha. It also gave a plant injury at 40 g/ha ([7]; 40 g ai/ha) of 0%, a plant injury at 80 g/ha ([7]; 80 g ai/ha) of 0% and a plant injury at 160 g/ha ([7]; 160 g ai/ha) of 8%. The plant injury at 40 g/ha ([8]; 40 g ai/ha) was 0%, the plant injury at 80 g/ha ([8]; 80 g ai/ha) was 0% and the plant injury at 160 g/ha ([8]; 160 g ai/ha) was 0%.
